Data published in ChEMBL document CHEMBL5678818, “Discovery of potent SOS1 inhibitors that block RAS activation via disruption of the RAS-SOS1 interaction” (Proc Natl Acad Sci U S A, 2019).
The source made the active and inactive calls. No cut-off for these calls is given here.

Tests used:
[1] = system: SOS1-KRAS (Homo sapiens), Q07889+P01116 [G12C]; assay: Inhibition of N-terminal GST-tagged recombinant human KRAS G12C mutant (1 to 169 residues) expressed in Escherichia coli/N-terminal His10-tagged wild-type recombinant human SOS1 catalytic domain (564 to 1049 residues) expressed in Escherichia coli protein-protein interaction assessed as reduction in FRET signal by HTRF analysis
[2] = molecular target: BMP-2-inducible protein kinase (Homo sapiens) (UniProt Q9NSY1); assay: Inhibition of BIKE (unknown origin) assessed as residual activity at 100 nM by KINOMEscan analysis relative to control
[3] = molecular target: T1, Ephrin type-A receptor 6 (Homo sapiens) (UniProt Q9UF33); assay: Inhibition of EPHA6 (unknown origin) assessed as residual activity at 100 nM by KINOMEscan analysis relative to control
T1 sequence (whole entry): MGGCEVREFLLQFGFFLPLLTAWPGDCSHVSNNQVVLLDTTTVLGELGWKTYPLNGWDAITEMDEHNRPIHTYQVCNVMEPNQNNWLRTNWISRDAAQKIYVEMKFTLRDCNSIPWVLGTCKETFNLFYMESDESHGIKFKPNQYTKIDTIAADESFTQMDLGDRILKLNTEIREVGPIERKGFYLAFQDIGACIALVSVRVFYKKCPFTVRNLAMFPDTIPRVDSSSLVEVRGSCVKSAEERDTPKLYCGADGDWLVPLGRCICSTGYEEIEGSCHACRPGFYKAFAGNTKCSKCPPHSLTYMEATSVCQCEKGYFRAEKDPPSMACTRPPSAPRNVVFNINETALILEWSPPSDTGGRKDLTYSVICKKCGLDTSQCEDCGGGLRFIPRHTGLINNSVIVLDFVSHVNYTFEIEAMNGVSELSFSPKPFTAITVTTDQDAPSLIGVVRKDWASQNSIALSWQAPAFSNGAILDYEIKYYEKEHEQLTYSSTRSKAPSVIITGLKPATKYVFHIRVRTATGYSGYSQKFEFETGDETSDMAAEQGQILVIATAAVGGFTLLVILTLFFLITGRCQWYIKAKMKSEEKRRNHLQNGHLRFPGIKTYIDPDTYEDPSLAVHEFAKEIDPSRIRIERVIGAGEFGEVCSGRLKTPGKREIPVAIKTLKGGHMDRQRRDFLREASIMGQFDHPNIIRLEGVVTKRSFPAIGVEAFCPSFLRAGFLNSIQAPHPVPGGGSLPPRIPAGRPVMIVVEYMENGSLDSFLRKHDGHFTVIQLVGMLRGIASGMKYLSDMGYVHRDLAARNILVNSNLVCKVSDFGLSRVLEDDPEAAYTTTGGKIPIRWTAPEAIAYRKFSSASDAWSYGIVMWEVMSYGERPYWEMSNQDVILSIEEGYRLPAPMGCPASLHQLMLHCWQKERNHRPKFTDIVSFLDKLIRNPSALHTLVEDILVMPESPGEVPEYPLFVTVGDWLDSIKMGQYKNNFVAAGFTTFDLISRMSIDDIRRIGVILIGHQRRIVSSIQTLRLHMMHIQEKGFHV

[4] = molecular target: T2, Ephrin type-B receptor 3 (Homo sapiens) (UniProt P54753); assay: Inhibition of EPHB3 (unknown origin) assessed as residual activity at 100 nM by KINOMEscan analysis relative to control
T2 sequence (whole entry): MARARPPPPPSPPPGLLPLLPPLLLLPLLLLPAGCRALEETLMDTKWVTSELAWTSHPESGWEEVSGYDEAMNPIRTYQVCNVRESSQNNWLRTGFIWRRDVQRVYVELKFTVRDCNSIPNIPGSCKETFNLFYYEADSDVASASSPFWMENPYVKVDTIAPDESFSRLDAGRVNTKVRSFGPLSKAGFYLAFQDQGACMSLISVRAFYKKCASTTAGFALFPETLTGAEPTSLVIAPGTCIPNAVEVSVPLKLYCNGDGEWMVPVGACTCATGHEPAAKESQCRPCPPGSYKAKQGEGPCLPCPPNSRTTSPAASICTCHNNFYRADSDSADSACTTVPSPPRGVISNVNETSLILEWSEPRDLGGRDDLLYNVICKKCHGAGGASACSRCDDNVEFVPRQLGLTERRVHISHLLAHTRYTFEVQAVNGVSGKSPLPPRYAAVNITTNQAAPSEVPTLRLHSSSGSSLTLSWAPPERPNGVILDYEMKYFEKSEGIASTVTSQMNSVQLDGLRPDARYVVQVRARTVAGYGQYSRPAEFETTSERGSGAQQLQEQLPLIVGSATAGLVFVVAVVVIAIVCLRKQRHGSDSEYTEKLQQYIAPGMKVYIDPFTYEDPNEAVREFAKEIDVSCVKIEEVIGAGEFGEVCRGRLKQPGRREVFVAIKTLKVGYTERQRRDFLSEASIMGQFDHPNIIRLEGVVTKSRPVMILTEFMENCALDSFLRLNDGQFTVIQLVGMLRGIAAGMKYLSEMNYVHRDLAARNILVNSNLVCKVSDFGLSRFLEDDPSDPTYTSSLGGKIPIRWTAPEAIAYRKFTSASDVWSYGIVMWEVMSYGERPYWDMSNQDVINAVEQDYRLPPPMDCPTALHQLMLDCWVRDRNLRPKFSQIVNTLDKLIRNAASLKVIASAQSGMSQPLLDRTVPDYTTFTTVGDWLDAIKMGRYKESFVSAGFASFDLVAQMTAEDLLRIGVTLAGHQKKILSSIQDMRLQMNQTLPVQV

[5] = molecular target: Mitogen-activated protein kinase 4 (Homo sapiens) (UniProt P31152); assay: Inhibition of ERK4 (unknown origin) assessed as residual activity at 100 nM by KINOMEscan analysis relative to control
[6] = molecular target: Glycogen synthase kinase-3 alpha (Homo sapiens) (UniProt P49840); assay: Inhibition of GSK3A (unknown origin) assessed as residual activity at 100 nM by KINOMEscan analysis relative to control
[7] = molecular target: T3, Dual specificity mitogen-activated protein kinase kinase 7 (Homo sapiens) (UniProt O14733); assay: Inhibition of MKK7 (unknown origin) assessed as residual activity at 100 nM by KINOMEscan analysis relative to control
T3 sequence (whole entry): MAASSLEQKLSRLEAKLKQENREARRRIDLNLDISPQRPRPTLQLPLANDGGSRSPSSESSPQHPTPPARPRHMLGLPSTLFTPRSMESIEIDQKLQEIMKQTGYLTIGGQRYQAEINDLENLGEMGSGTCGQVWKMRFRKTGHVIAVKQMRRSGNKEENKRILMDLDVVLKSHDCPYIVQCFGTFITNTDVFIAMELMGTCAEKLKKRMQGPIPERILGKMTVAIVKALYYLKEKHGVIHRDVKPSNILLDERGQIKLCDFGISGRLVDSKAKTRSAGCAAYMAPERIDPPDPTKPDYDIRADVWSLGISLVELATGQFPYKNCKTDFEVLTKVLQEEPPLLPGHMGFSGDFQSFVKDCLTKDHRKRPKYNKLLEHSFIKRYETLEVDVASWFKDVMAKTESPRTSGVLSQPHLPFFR

[8] = molecular target: Serine/threonine-protein kinase VRK2 (Homo sapiens) (UniProt Q86Y07); assay: Inhibition of VRK2 (unknown origin) assessed as residual activity at 100 nM by KINOMEscan analysis relative to control
Chain of Serine/threonine-protein kinase VRK2 (Homo sapiens) (Q86Y07 whole entry): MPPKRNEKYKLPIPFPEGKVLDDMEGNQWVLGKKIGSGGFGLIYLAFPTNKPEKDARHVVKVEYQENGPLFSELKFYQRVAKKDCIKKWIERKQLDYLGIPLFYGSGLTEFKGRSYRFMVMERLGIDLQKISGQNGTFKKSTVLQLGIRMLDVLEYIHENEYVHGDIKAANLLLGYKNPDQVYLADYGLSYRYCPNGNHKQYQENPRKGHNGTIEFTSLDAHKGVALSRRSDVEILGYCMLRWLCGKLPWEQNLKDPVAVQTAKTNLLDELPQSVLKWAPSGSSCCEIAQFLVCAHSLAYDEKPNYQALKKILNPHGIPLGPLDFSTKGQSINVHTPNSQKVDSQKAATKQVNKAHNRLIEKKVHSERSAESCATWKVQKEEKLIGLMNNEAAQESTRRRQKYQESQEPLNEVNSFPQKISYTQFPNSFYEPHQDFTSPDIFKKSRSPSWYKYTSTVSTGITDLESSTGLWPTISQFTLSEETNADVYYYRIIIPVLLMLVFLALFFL

Chain of BMP-2-inducible protein kinase (Homo sapiens) (Q9NSY1 whole entry, looked up): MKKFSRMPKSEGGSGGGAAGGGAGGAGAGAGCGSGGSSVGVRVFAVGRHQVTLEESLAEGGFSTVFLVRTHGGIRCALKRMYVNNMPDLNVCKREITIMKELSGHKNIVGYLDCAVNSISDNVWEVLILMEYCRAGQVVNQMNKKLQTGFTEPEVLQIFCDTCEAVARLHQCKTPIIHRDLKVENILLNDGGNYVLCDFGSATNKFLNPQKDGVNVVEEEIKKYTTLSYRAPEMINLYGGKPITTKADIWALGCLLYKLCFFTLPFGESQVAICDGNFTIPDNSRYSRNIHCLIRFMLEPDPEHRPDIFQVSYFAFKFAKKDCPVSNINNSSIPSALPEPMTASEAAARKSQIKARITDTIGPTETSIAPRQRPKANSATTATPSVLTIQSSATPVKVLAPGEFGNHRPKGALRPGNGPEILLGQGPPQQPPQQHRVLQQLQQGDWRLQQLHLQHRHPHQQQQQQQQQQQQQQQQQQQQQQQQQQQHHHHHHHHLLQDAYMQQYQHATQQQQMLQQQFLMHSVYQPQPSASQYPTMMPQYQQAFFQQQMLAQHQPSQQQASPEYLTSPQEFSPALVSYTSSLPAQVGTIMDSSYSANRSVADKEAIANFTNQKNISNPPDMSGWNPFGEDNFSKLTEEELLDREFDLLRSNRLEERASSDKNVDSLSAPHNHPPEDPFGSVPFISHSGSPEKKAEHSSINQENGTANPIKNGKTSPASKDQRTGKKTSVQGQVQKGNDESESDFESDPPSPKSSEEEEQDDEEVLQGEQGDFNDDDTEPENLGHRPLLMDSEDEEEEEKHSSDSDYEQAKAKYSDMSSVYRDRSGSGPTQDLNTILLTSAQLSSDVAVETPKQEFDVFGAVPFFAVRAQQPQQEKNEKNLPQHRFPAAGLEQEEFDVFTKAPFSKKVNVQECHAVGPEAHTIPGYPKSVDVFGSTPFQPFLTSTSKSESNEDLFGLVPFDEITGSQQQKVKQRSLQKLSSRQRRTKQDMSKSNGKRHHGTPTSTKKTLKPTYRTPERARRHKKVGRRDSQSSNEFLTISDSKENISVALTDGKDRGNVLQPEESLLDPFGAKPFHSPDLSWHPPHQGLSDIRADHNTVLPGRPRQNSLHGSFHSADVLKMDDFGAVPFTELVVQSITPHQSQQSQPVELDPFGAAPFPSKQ
Chain of Mitogen-activated protein kinase 4 (Homo sapiens) (P31152 whole entry): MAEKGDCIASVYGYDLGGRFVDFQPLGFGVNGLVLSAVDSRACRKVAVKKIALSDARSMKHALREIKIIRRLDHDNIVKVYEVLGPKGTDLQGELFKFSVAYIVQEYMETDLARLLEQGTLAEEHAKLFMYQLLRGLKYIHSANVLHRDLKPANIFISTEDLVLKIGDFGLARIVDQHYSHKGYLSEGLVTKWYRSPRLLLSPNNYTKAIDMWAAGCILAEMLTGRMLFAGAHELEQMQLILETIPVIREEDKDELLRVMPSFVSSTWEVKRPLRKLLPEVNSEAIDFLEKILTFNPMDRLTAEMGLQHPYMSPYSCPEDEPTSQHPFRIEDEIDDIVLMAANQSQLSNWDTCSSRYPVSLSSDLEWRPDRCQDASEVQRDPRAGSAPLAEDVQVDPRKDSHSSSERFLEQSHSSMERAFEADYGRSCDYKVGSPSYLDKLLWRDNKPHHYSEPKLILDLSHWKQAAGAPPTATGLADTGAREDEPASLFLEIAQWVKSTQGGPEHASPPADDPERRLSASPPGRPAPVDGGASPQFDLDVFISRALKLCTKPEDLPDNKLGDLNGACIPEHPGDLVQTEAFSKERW
Chain of Glycogen synthase kinase-3 alpha (Homo sapiens) (P49840 2-483 limits assumed): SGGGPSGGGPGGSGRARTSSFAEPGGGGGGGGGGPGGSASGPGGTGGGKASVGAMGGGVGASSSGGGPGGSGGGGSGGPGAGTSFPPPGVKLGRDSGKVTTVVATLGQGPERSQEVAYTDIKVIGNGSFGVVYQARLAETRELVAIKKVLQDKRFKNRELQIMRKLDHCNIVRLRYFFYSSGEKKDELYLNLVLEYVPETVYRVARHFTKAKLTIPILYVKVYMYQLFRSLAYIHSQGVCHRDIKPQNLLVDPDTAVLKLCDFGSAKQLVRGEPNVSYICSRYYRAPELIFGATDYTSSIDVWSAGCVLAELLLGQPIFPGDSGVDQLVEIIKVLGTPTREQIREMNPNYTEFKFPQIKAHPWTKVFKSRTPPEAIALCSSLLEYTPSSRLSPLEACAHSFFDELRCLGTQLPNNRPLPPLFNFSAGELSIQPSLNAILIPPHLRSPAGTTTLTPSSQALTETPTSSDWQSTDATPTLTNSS

For `COc1cc2ncnc(N[C@H](C)c3cccc4ccccc34)c2cc1OC`, the Activity [1] was “Active”, the Activity [2] was 93% and the Activity [3] was 77%. The Activity [4] was 71%, the Activity [5] was 100% and the Activity [6] was 75%. The Activity [7] was 77% and the Activity [8] was 72%.
